Reference: patent US12110293B2, “Substituted triazolo quinoxaline derivatives” (GRÜNENTHAL GMBH, priority 2018, dated 2024)

Biological target: T1, glucocorticoid receptor (Homo sapiens, UniProt P04150)
T1 construct: expressed in transfected cells
T1 sequence (P04150 524-758 limits assumed): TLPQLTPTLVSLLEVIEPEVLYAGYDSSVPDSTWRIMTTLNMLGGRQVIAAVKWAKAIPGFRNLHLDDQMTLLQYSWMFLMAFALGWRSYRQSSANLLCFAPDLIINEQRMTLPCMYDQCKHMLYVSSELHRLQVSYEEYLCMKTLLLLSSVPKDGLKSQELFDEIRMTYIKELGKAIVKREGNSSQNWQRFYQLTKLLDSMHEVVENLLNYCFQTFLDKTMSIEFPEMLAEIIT
Assay: Agonistic mode of action on the glucocorticoid receptor (CHO-Gal4/GR luciferase reporter cell line)
Type: cell-based
Conditions: range class observed in the agonistic assay or the antagonistic assay (CHO-Gal4/GR reporter cells); table does not say which mode applies per example
In short: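 CHO cells stably carrying GAL4 DBD–GR ligand-binding-domain fusion and GAL4-UAS firefly luciferase reporter, 5000 cells/well grown 24 h, then compounds added in Opti-MEM at 8 half-log concentrations from 10 μM to 0.003 μM (0.5% DMSO), quadruplicates. Agonist-induced luminescence read on FLIPR Tetra; EC50 calculated.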

| IC50 or EC50 (agonist or antagonist mode not specified) [nM] | SMILES |
| --- | --- |
| 1000 to 15000 | CC#Cc1c[nH]c2c(-c3c(F)cc4c(c3C)-n3c(C(C)O)nnc3C(C)(C)N4)cc(F)cc12 (centres unmarked) [Example 78] |
| 100 to 1000 | Cc1nnc2n1-c1c(cc(F)c(-c3ccc(Cl)c4[nH]ccc34)c1C(F)(F)F)NC2(C)C [Example 530, 8-(7-Chloro-1H-indol-4-yl)-7-fluoro-1,4,4-trimethyl-9-(trifluoromethyl)-5H-[1,2,4] triazolo[4,3-a]quinoxaline] |
| 100 to 1000 | Cc1c(-c2cc(F)cc3c2cnn3CC(F)F)c(OC(F)(F)F)cc2c1-n1c(C)nnc1C(C)(C)N2 [Example 469, 8-[1-(2,2-Difluoro-ethyl)-6-fluoro-1H-indazol-4-yl]-1,4,4,9-tetramethyl-7-(trifluoromethyloxy)-5H-[1,2,4]triazolo[4,3-a]quinoxaline] |
| 100 to 1000 | COc1c(-c2cccc3c(C)c[nH]c23)c(F)cc2c1-n1c(C)nnc1C(C)(C)N2 [Example 270, 7-Fluoro-9-methoxy-1,4,4-trimethyl-8-(3-methyl-1H-indol-7-yl)-5H-[1,2,4]triazolo[4,3-a]quinoxaline] |
| < 100 | Cc1nnc2n1-c1c(cc(F)c(-c3cc(F)cc4c3cnn4CCO)c1C(F)(F)F)NC2(C)C [Example 449, 2-[6-Fluoro-4-[7-fluoro-1,4,4-trimethyl-9-(trifluoromethyl)-5H-[1,2,4]triazolo[4,3-a]quinoxalin-8-yl]-1H-indazol-1-yl]-ethanol] |
| < 100 | Cc1c(-c2cccc3c2ccn3CC(F)F)c(F)cc2c1-n1c(C)nnc1C(C)(C)N2 [Example 330, 8-[1-(2,2-Difluoro-ethyl)-1H-indol-4-yl]-7-fluoro-1,4,4,9-tetramethyl-5H-[1,2,4]triazolo[4,3-a]quinoxaline] |
| 100 to 1000 | COc1c(-c2cccc3c2ccn3C(=O)OC(C)(C)C)c(F)cc2c1-n1c(C)nnc1C(C)(C)N2 [Example 260, 4-(7-Fluoro-9-methoxy-1,4,4-trimethyl-5H-[1,2,4]triazolo[4,3-a]quinoxalin-8-yl)-1H-indole-1-carboxylic acid tert-butyl ester] |
| 100 to 1000 | Cc1c(-c2cc(F)cc3c(C)c[nH]c23)c(OC(F)(F)F)cc2c1-n1c(C)nnc1C(C)(C)N2 [Example 458, 8-(5-Fluoro-3-methyl-1H-indol-7-yl)-1,4,4,9-tetramethyl-7-(trifluoromethyloxy)-5H-[1,2,4]triazolo[4,3-a]quinoxaline] |
| 1000 to 15000 | Cc1nnc2n1-c1c(cc(C(F)F)c(-c3cc(F)cc4c3ccn4CCO)c1F)NC2(C)C [Example 385, 2-[4-[7-(Difluoro-methyl)-9-fluoro-1,4,4-trimethyl-5H-[1,2,4]triazolo [4,3-a]quinoxalin-8-yl]-6-fluoro-1H-indol-1-yl]-ethanol] |
| 1000 to 15000 | Cc1nnc2n1-c1c(cc(F)c(-c3cccc4c3cc(C(F)(F)F)n4S(C)(=O)=O)c1F)NC2(C)C [Example 271, 7,9-Difluoro-1,4,4-trimethyl-8-[1-methylsulfonyl-2-(trifluoromethyl)-1H-indol-4-yl]-5H-[1,2,4]triazolo [4,3-a]quinoxaline] |
| < 100 | Cc1c(-c2cccc3c2ccn3S(C)(=O)=O)c(OC(F)(F)F)cc2c1-n1c(C)nnc1C(C)(C)N2 [Example 465, 1,4,4,9-Tetramethyl-8-(1-methylsulfonyl-1H-indol-4-yl)-7-(trifluoromethyloxy)-5H-[1,2,4]triazolo[4,3-a]quinoxaline] |
| 1000 to 15000 | COCCn1ccc2c(-c3c(OC(F)F)cc4c(c3F)-n3c(C)nnc3C(C)(C)N4)cc(F)cc21 [Example 394, 7-(Difluoro-methoxy)-9-fluoro-8-[6-fluoro-1-(2-methoxy-ethyl)-1H-indol-4-yl]-1,4,4-trimethyl-5H-[1,2,4]triazolo[4,3-a]quinoxaline] |
| 100 to 1000 | Cc1nnc2n1-c1c(cc(F)c(-c3cccc4c3ccn4S(=O)(=O)C3CC3)c1C(F)F)NC2(C)C [Example 401, 8-[1-(Cyclopropylsulfonyl)-1H-indol-4-yl]-9-(difluoro-methyl)-7-fluoro-1,4,4-trimethyl-5H-[1,2,4]triazolo [4,3-a]quinoxaline] |
| 1000 to 15000 | COCCn1ccc2c(-c3c(OC)cc4c(c3F)-n3c(C)nnc3C(C)(C)N4)cccc21 [Example 288, 9-Fluoro-7-methoxy-8-[1-(2-methoxy-ethyl)-1H-indol-4-yl]-1,4,4-trimethyl-5H-[1,2,4]triazolo[4,3-a]quinoxaline] |

Further lines, the compound ahead of its results:

| SMILES | IC50 or EC50 (agonist or antagonist mode not specified) [nM] |
| --- | --- |
| Cc1nnc2n1-c1c(cc(F)c(-c3cccc4c(C5CC5)c[nH]c34)c1C(F)(F)F)NC2(C)C [Example 87, 8-(3-cyclopropyl-1H-indol-7-yl)-7-fluoro-1,4,4-trimethyl-9-(trifluoromethyl)-4,5-dihydro-[1,2,4]triazolo[4,3-a]quinoxaline] | 100 to 1000 |
| COCCn1ccc2c(-c3c(C)cc4c(c3F)-n3c(C)nnc3C(C)(C)N4)cccc21 [Example 337, 9-Fluoro-8-[1-(2-methoxy-ethyl)-1H-indol-4-yl]-1,4,4,7-tetramethyl-5H-[1,2,4]triazolo[4,3-a]quinoxaline] | 1000 to 15000 |
| Cc1nnc2n1-c1c(cc(F)c(-c3cc(F)cc4c3ccn4C3CC3)c1F)NC2(C)C [Example 2, 8-(1-cyclopropyl-6-fluoro-1H-indol-4-yl)-7,9-difluoro-1,4,4-trimethyl-4,5-dihydro-[1,2,4]triazolo[4,3-a]quinoxaline] | < 100 |
| Cc1nnc2n1-c1c(cc(Cl)c(-c3cccc4c3cnn4C)c1F)NC2(C)C [Example 285, 7-Chloro-9-fluoro-1,4,4-trimethyl-8-(1-methyl-1H-indazol-4-yl)-5H-[1,2,4]triazolo[4,3-a]quinoxaline] | 1000 to 15000 |
| Cc1c(-c2cccc3c(C#CC(C)(C)O)c[nH]c23)c(F)cc2c1-n1c(C)nnc1C(C)(C)N2 [Example 39] | 100 to 1000 |
| Cc1cc2c(c(C)c1-c1cc(F)cc3c1ccn3S(C)(=O)=O)-n1c(C)nnc1C(C)(C)N2 [Example 328, 8-(6-Fluoro-1-methylsulfonyl-1H-indol-4-yl)-1,4,4,7,9-pentamethyl-5H-[1,2,4]triazolo[4,3-a]quinoxaline] | 100 to 1000 |
| COc1cc(-c2c(F)cc3c(c2C(F)(F)F)-n2c(C)nnc2C(C)(C)N3)c2ccn(S(C)(=O)=O)c2c1 [Example 536, 7-Fluoro-8-(6-methoxy-1-methylsulfonyl-1H-indol-4-yl)-1,4,4-trimethyl-9-(trifluoro-methyl)-5H-[1,2,4]triazolo [4,3-a]quinoxaline] | 100 to 1000 |
| Cc1cc2c(c(C)c1-c1cccc3c1ccn3S(C)(=O)=O)-n1c(C)nnc1C(C)(C)N2 [Example 309, 1,4,4,7,9-Pentamethyl-8-(1-methylsulfonyl-1H-indol-4-yl)-5H-[1,2,4]triazolo[4,3-a]quinoxaline] | < 100 |
| COCCn1ccc2c(-c3c(OC(F)(F)F)cc4c(c3C)-n3c(C)nnc3C(C)(C)N4)cccc21 [Example 460, 8-[1-(2-Methoxy-ethyl)-1H-indol-4-yl]-1,4,4,9-tetramethyl-7-(trifluoromethyloxy)-5H-[1,2,4]triazolo[4,3-a]quinoxaline] | 100 to 1000 |
| Cc1nnc2n1-c1c(cc(F)c(-c3cc(F)cc4[nH]ccc34)c1F)NC2(C)C [Example 1, 7,9-difluoro-8-(6-fluoro-1H-indol-4-yl)-1,4,4-trimethyl-4,5-dihydro-[1,2,4]triazolo[4,3-a]quinoxaline] | < 100 |
| COc1cc2c(c(F)c1-c1cc(F)cc3c1ccn3S(C)(=O)=O)-n1c(C)nnc1C(C)(C)N2 [Example 255, 9-Fluoro-8-(6-fluoro-1-methylsulfonyl-1H-indol-4-yl)-7-methoxy-1,4,4-trimethyl-5H-[1,2,4]triazolo[4,3-a]quinoxaline] | 1000 to 15000 |
| Cc1nnc2n1-c1c(cc(F)c(-c3cccc4c3ccn4C(=O)CN(C)C)c1F)NC2(C)C [Example 223, 1-[4-(7,9-Difluoro-1,4,4-trimethyl-5H-[1,2,4]triazolo[4,3-a]quinoxalin-8-yl)-1H-indol-1-yl]-2-dimethylamino-ethanone] | < 100 |
| COc1c(-c2cc(F)cc3c2cnn3S(C)(=O)=O)c(F)cc2c1-n1c(C)nnc1C(C)(C)N2 [Example 339, 7-Fluoro-8-(6-fluoro-1-methylsulfonyl-1H-indazol-4-yl)-9-methoxy-1,4,4-trimethyl-5H-[1,2,4]triazolo[4,3-a]quinoxaline] | 100 to 1000 |
| Cc1nnc2n1-c1c(cc(F)c(-c3cc(F)cc4c3ccn4C)c1C(F)(F)F)NC2(C)C [Example 532, 7-Fluoro-8-(6-fluoro-1-methyl-1H-indol-4-yl)-1,4,4-trimethyl-9-(trifluoromethyl)-5H-[1,2,4] triazolo[4,3-a]quinoxaline] | < 100 |
| CC#Cc1c[nH]c2c(-c3c(F)cc4c(c3C)-n3c(CO)nnc3C(C)(C)N4)cc(F)cc12 [Example 77, (7-fluoro-8-(5-fluoro-3-(prop-1-yn-1-yl)-1H-indol-7-yl)-4,4,9-trimethyl-4,5-dihydro-[1,2,4]triazolo[4,3-a]quinoxalin-1-yl)methanol] | 100 to 1000 |
